This note sets out measurements from US20160319277A1, “METHODS OF IMPROVED PROTEIN PRODUCTION USING MIRNAs AND SIRNAs” (THE JOHNS HOPKINS UNIVERSITY, priority 2015, published 2016).

The test system of the data set is HEK-CMV-Luc2-Hygro cells. The data set can be described thus: High-throughput genome-wide siRNA screen and validation screen for luciferase expression. It is filed as cell-based, human. Particulars: Table 4; primary screen, 72 h, negative control = 100%. An outline of the steps: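 HEK cells with CMV-driven luciferase were reverse-transfected with 0.8 pmol siRNA per well (3 per gene) via RNAiMax and grown 72 h at 37 °C. Duplicate wells read for luciferase (ONE-Glo) and viability (CellTiter-Glo). Values given as % of plate negative-control median with MAD-based z-scores; hits with ≥2 siRNAs at z>3 retested using 3 new siRNAs.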
Regarding “172 (GGAUAUUGGAGGCUAGUCATT; chemistry not given here; listed as Homo sapiens) [compound 172]”, the “Viable cell density (%)” value is given as 289.677% and the “per cell luciferase yield (%)” value was 157.868%.

For the substance “173 (GACUAUUGAUACCAAAACATT; chemistry not given here; listed as Homo sapiens) [compound 173]”, the “Viable cell density (%)” value was 82.689% and the “per cell luciferase yield (%)” value is recorded as 209.398%.

For “174 (GCAAUGCUUGCAAAACUCATT; chemistry not given here; listed as Homo sapiens) [compound 174]”, the “Viable cell density (%)” value is listed as 90.976% and the “per cell luciferase yield (%)” value is listed as 189.252%.

With “175 (CAUUGGUGUUGACAAUCCATT; chemistry not given here; listed as Homo sapiens) [compound 175]”, the “Viable cell density (%)” value stood at 85.046% and the “per cell luciferase yield (%)” value was 189.850%.

With “176 (GUUGCAAACUUAUCGAGGATT; chemistry not given here; listed as Homo sapiens) [compound 176]”, the “Viable cell density (%)” value was 79.093% and the “per cell luciferase yield (%)” value was 186.786%.

Take “177 (CUCUUAUGGUAACCAAUGATT; chemistry not given here; listed as Homo sapiens) [compound 177]”: the “Viable cell density (%)” value is reported as 91.558% and the “per cell luciferase yield (%)” value amounted to 160.246%.

As for “178 (AAAUGCAACCCAAAAAGUATT; chemistry not given here; listed as Homo sapiens) [compound 178]”, the “Viable cell density (%)” value is 76.280% and the “per cell luciferase yield (%)” value is 200.322%.

Take “179 (GUACCUGCGGGAUUACUCATT; chemistry not given here; listed as Homo sapiens) [compound 179]”: the “Viable cell density (%)” value is listed as 90.987% and the “per cell luciferase yield (%)” value was 160.687%.

As for “180 (CCACCCUACUAUGUACUGUTT; chemistry not given here; listed as Homo sapiens) [compound 180]”, the “Viable cell density (%)” value was 93.181% and the “per cell luciferase yield (%)” value was determined as 185.763%.

Take “181 (GCUAAGUCUUUUCCACAGUTT; chemistry not given here; listed as Homo sapiens) [compound 181]”: the “Viable cell density (%)” value is recorded as 94.537% and the “per cell luciferase yield (%)” value worked out at 155.385%.

“182 (CAGUUACUUUCAAAACUCUTT; chemistry not given here; listed as Homo sapiens) [compound 182]”: the “Viable cell density (%)” value is recorded as 91.714% and the “per cell luciferase yield (%)” value was found to be 202.960%.

Take “183 (CAACAGAUCAGAGAACAAATT; chemistry not given here; listed as Homo sapiens) [compound 183]”: the “Viable cell density (%)” value is 92.429% and the “per cell luciferase yield (%)” value was 156.418%.

With “184 (GCCUGAAUCUUGUCCCAAATT; chemistry not given here; listed as Homo sapiens) [compound 184]”, the “Viable cell density (%)” value was 82.390% and the “per cell luciferase yield (%)” value was found to be 228.483%.

Turning to “185 (GAAGAAGACUCUGUACUCATT; chemistry not given here; listed as Homo sapiens) [compound 185]”, the “Viable cell density (%)” value came to 66.511% and the “per cell luciferase yield (%)” value amounted to 215.853%.

Take “186 (CGAAACUUGUCAACGGGAATT; chemistry not given here; listed as Homo sapiens) [compound 186]”: the “Viable cell density (%)” value stood at 104.553% and the “per cell luciferase yield (%)” value is on record as 179.207%.

On to “187 (AGAAAGCUUUGGGCAAAUATT; chemistry not given here; listed as Homo sapiens) [compound 187]”, for which the “Viable cell density (%)” value was 75.570% and the “per cell luciferase yield (%)” value is reported as 200.070%.

Regarding “188 (GGAAGAACGUCUUGCACAATT; chemistry not given here; listed as Homo sapiens) [compound 188]”, the “Viable cell density (%)” value is 85.471% and the “per cell luciferase yield (%)” value is 183.071%.

In the case of “189 (GAACAAAAUAGACCUCUUATT; chemistry not given here; listed as Homo sapiens) [compound 189]”, the “Viable cell density (%)” value came out at 101.897% and the “per cell luciferase yield (%)” value is given as 162.677%.

For “190 (CUGUGGAAAAGAUACCGUATT; chemistry not given here; listed as Homo sapiens) [compound 190]”, the “Viable cell density (%)” value amounted to 95.368% and the “per cell luciferase yield (%)” value was 152.850%.

On to “191 (GCCCACUAUUCUCAGCUCATT; chemistry not given here; listed as Homo sapiens) [compound 191]”, for which the “Viable cell density (%)” value is given as 66.121% and the “per cell luciferase yield (%)” value is 214.156%.

Regarding “192 (GCAUCUGUCCGAUCGCUCUTT; chemistry not given here; listed as Homo sapiens) [compound 192]”, the “Viable cell density (%)” value amounted to 105.514% and the “per cell luciferase yield (%)” value is 143.889%.

Regarding “193 (GGGACACUGUCAACCUCUATT; chemistry not given here; listed as Homo sapiens) [compound 193]”, the “Viable cell density (%)” value worked out at 74.811% and the “per cell luciferase yield (%)” value was found to be 205.132%.

Consider “194 (CAUCAAGCCCUGUAAGUCUTT; chemistry not given here; listed as Homo sapiens) [compound 194]”, for which the “Viable cell density (%)” value is listed as 89.583% and the “per cell luciferase yield (%)” value stood at 163.431%.

Regarding “195 (UGAAGAUAAUCGAGAAAUATT; chemistry not given here; listed as Homo sapiens) [compound 195]”, the “Viable cell density (%)” value stood at 67.947% and the “per cell luciferase yield (%)” value stood at 258.104%.

“196 (ACAGGUCUUUAUCAAAGCATT; chemistry not given here; listed as Homo sapiens) [compound 196]”: the “Viable cell density (%)” value worked out at 100.201% and the “per cell luciferase yield (%)” value is listed as 153.426%.

Take “197 (GACUCAGAGUAACAACGCATT; chemistry not given here; listed as Homo sapiens) [compound 197]”: the “Viable cell density (%)” value was 95.471% and the “per cell luciferase yield (%)” value is recorded as 162.372%.

For “198 (GCCUAGGAGUUAUCCUCUATT; chemistry not given here; listed as Homo sapiens) [compound 198]”, the “Viable cell density (%)” value turned out to be 112.248% and the “per cell luciferase yield (%)” value was 137.554%.

As to “199 (CUAACUACCCAGACCCUUATT; chemistry not given here; listed as Homo sapiens) [compound 199]”, the “Viable cell density (%)” value came out at 88.359% and the “per cell luciferase yield (%)” value was determined as 164.639%.

For the substance “200 (GCAACAGAAUCGAGCAAGATT; chemistry not given here; listed as Homo sapiens) [compound 200]”, the “Viable cell density (%)” value is 105.583% and the “per cell luciferase yield (%)” value is given as 154.286%.

Regarding “201 (CCCUGAAGGUUACCUCUUUTT; chemistry not given here; listed as Homo sapiens) [compound 201]”, the “Viable cell density (%)” value was 63.690% and the “per cell luciferase yield (%)” value was found to be 273.535%.

“202 (GGAUGACGAGCUGAACUUUTT; chemistry not given here; listed as Homo sapiens) [compound 202]”: the “Viable cell density (%)” value turned out to be 113.437% and the “per cell luciferase yield (%)” value is recorded as 140.103%.

On to “203 (GAUUACUUCUUGACUAUCATT; chemistry not given here; listed as Homo sapiens) [compound 203]”, for which the “Viable cell density (%)” value is listed as 123.199% and the “per cell luciferase yield (%)” value came to 150.843%.

Regarding “204 (CUCCCGCAGUUGAACAUCATT; chemistry not given here; listed as Homo sapiens) [compound 204]”, the “Viable cell density (%)” value is given as 109.377% and the “per cell luciferase yield (%)” value is on record as 136.174%.

With “205 (CUCUGAUUGUCACCUCUUATT; chemistry not given here; listed as Homo sapiens) [compound 205]”, the “Viable cell density (%)” value came out at 61.943% and the “per cell luciferase yield (%)” value is recorded as 281.113%.

In the case of “206 (GCUCCUCUGUUACCACAGATT; chemistry not given here; listed as Homo sapiens) [compound 206]”, the “Viable cell density (%)” value is reported as 91.526% and the “per cell luciferase yield (%)” value worked out at 179.268%.

Regarding “207 (CGCUCACCAACAGCAGAAATT; chemistry not given here; listed as Homo sapiens) [compound 207]”, the “Viable cell density (%)” value was 102.629% and the “per cell luciferase yield (%)” value is given as 146.756%.

For the substance “208 (CUUUUAAUGUUAAACUACATT; chemistry not given here; listed as Homo sapiens) [compound 208]”, the “Viable cell density (%)” value was 110.986% and the “per cell luciferase yield (%)” value came to 133.601%.

As to “209 (GAACUUCACAAGUUCCUCATT; chemistry not given here; listed as Homo sapiens) [compound 209]”, the “Viable cell density (%)” value is reported as 84.418% and the “per cell luciferase yield (%)” value came out at 228.634%.

On to “210 (CAAUGGAACAAUCAAAGUUTT; chemistry not given here; listed as Homo sapiens) [compound 210]”, for which the “Viable cell density (%)” value is on record as 89.607% and the “per cell luciferase yield (%)” value is given as 180.764%.

Consider “211 (GGAUUACAGAAACUCCUAUTT; chemistry not given here; listed as Homo sapiens) [compound 211]”, for which the “Viable cell density (%)” value was found to be 82.634% and the “per cell luciferase yield (%)” value is 188.258%.
